Values quoted from earlier work, collected in article PMC7340670, “Phase I study of TAS-115, a novel oral multi-kinase inhibitor, in patients with advanced solid tumors” (Investigational New Drugs, 2019).

Key:
[1] = system: patients with solid tumours; parameters: method as in PMID 21606412; settings: phase I study for solid tumours; cited from earlier work
[2] = system: circulating sMET; parameters: method as in PMID 21606412, PMID 21156020, PMID 24687921; settings: previous clinical studies; cited from earlier work

Compound	TRAE decreased appetite [1] [%]	TRAE diarrhea [1] [%]	TRAE fatigue [1] [%]	TRAE nausea [1] [%]	TRAEs neutropenia, anemia, hypophosphatemia, and thrombocytopenia [1]	levels of circulating sMET [2]
COc1cc2nccc(Oc3ccc(NC(=O)C4(C(=O)Nc5ccc(F)cc5)CC4)cc3)c2cc1OC [cabozantinib]	48	57	55	43	not observed	Increased levels
onartuzumab: agent of a previous clinical study in which increased circulating sMET was reported (ref 21)	–	–	–	–	–	Increased levels
rilotumumab: agent of a previous clinical study in which increased circulating sMET was reported (ref 20)	–	–	–	–	–	Increased levels
